In ChEMBL document CHEMBL3638470, “Substituted 5,6,7,8-tetrahydro-1,6-naphthyridines as factor XIa inhibitors” (2015):

Target: Coagulation factor XI (Homo sapiens, UniProt P03951)
Test: Inhibition Assay: The effectiveness of compounds of the present invention as inhibitors of the coagulation factors XIa, Vila, IXa, Xa, Xlla, plasma kallikrein or thrombin, can be determined using a relevant purified serine protease, respectively, and an appropriate synthetic substrate. The rate of hydrolysis of the chromogenic or fluorogenic substrate by the relevant serine protease was measured both in the absence and presence of compounds of the present invention. […] A decrease in the rate of absorbance or fluorescence change in the presence of inhibitor is indicative of enzyme inhibition. Such methods are known to one skilled in the art.

Coagulation factor XI, sequence (P03951 19-387 limits assumed): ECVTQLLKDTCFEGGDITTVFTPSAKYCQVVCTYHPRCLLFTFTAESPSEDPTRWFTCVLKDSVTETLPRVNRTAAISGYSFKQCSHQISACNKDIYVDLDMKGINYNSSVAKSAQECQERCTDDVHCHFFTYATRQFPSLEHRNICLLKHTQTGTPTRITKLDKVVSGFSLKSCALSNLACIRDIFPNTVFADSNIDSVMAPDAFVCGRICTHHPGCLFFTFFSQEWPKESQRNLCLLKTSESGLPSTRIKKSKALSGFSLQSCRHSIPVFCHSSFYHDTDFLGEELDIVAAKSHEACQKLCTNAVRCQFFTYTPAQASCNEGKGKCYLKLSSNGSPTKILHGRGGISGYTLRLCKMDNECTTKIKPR
Coagulation factor XI, sequence (P03951 388-625 limits assumed): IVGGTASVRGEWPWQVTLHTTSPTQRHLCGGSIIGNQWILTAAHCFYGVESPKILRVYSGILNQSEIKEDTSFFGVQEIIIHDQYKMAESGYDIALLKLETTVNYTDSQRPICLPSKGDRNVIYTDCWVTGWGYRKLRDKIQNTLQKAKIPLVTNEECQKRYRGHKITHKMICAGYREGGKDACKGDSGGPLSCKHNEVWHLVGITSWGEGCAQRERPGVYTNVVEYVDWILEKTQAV

COC(=O)Nc1cccc(NC(=O)[C@@H]2c3ccccc3CCN2C(=O)/C=C/c2cc(Cl)ccc2-n2cnnn2)c1
Ki: 2790 nM
